The values below come from patent publication US12060360B2, “Lysyl oxidase inhibitors” (The Institute of Cancer Research: Royal Cancer Hospital, priority 2017, dated 2024).

Assay [1] relates to SW620 human colorectal carcinoma cells (mutant RAS). Briefly: SW620 xenografts, primary tumour volume T/C. It counts as in vivo. Conditions: 200 mg/kg po qd; ratio of average tumour volume treated/vehicle control; p<0.05. The procedure:
All procedures involving animals were approved by the Animal Welfare and Ethical Review Body of the Institute of Cancer Research and Cancer Research UK Manchester Institute in accordance with National Home Office regulations under the Animals (Scientific Procedures) Act 1986 and according to the guidelines of the Committee of the National Cancer Research Institute Tumour size was determined by caliper measurements of tumour length, width and depth and volume was calculated as volume=0.5236×length×width×depth (mm).
SW620 xenografts: NCr mice were inoculated subcutaneously in the right flank with 5×10^6 SW620 cells at 100 ul suspension per animal. Groups of 7-8 mice were assigned to treatment following stratified allocation of tumour volumes with a median size of circa 100 mm^3. […] Tumours and weights are measured twice weekly using calipers. […] Frozen samples are kept at −80 degree centigrade until being analysed and the fixed samples stained according to the desired marker.
For therapeutic efficacy assessment, the ratio of average tumour volume between compound treated and vehicle control treated (T/C) is calculated. […] The efficacy of LOX inhibitors described in this invention, as measured by T/C in a pancreatic cancer model, a colorectal cancer model and a breast cancer model is shown in Table 2 and is significant (p<0.05) for all the data presented.

The test system of assay [2] is MMTV-PyMT breast transgenic model lung metastases. Put plainly: MMTV-PyMT transgenic mouse breast cancer model, lung metastases quantification T/C. It counts as in vivo. Conditions: 200 mg/kg po qd, treated/vehicle control, p<0.05. The procedure: MMTV-PyMT (Guy et al, 1992) (FVB) female mice were randomized by non-statistical methods to LOX inhibitor treatment groups from day 70 post-birth, when animals had no detectable tumour. Mice were treated daily by oral gavage with LOX inhibitor in vehicle, or daily vehicle (5% DMSO/2.5% Tween20 in water) by oral gavage. Tumour size was determined unblinded by caliper measurements of tumour length, width and depth and volume was calculated as 0.5236×length×width×depth (mm). In all experiments, mice were humanely killed and mammary tumours and lungs were collected when the primary tumours reached ethical limits or signs of ill health.
For lung metastases quantification, all mouse tissue samples were fixed in 10% formalin (Sigma) and embedded in paraffin. Samples were sectioned and hematoxylin and eosin (H&E) stained. Samples were imaged with a Leica CN400 slide scanner. Lung metastases were manually selected using Pen tool in ImageScope. Lung metastases number was counted and area was measured using ImageScope. The investigator was blinded to the experimental groups. The ratio of average metastases surface between compound treated and vehicle control treated (TIC) is calculated. The ratio of average metastases numbers between compound treated and vehicle control treated (T/C) is also calculated. Reduction in metastases area and/or in metastatses number in the compound treated group compared to vehicle-treated control group results in T/C<1. The antimetastatic efficacy of LOX inhibitors described in this invention, as measured by T/C in a model of breast cancer metastasising to lungs is shown in Table 2 and is significant (p<0.05) for all the data presented.

For `CCOc1ccc(N2C[C@H]3CN(CCCC#N)C[C@@H]2C(C)(C)C3)cc1` [Example 42, 4-((1R,5S)-6-(4-ethoxyphenyl)-9,9-dimethyl-3,6-diazabicyclo[3.2.2]nonan-3-yl)butanenitrile], the “T/C SW620 human colorectal carcinoma cells (mutant RAS) - primary tumour” value in assay [1] turned out to be 0.54. The “T/C MMT-PyMT breast transgenic model - metastases b) Area” value in assay [2] (lung metastases area) is “b) 0.013”. Also, the “T/C MMT-PyMT breast transgenic model - metastases a) Count” value in assay [2] (lung metastases number) is on record as “a) 0.16”.
